In patent US10457619B2, “Resorcinol derivatives for cosmetic use thereof” (L'OREAL, priority 2015, dated 2019):

Key:
normal human melanocytes = assay: Activity on constitutive melanogenesis: melanin production by normal human melanocytes in vitro; assay type: cell-based; conditions: Melanocyte, 72 hours incubation, optical density, maximum concentration tested 200 μM, read-out: IC50 (μM): concentration at which a 50% decrease in melanin synthesis is achieved
Experimental: For the evaluations of the effect of preventing or decreasing pigmentation of the skin and/or of lightening of this skin, the examples are performed in the following manner.
The measurement of the depigmenting activity (reduction of melanin production) of compounds of formula (I) was performed by assaying normal human melanocytes in vitro as follows.
First of all, normal human melanocytes were cultured and dispensed into 384 wells. After 24 hours, the culture medium was replaced with a medium containing compounds of formula (I) to be evaluated. The cells were incubated for 72 hours before measurement of the final optical density, which measures the amount of melanin produced by the melanocytes. A dose effect was performed using a wide concentration range of the compounds evaluated. Thus, by making the concentrations and the melanin measurements correspond, it was possible to determine an IC50 in μM: concentration at which a 50% decrease in melanin synthesis is achieved.

[1] = tested on: pigmented reconstructed epidermides (keratinocytes and melanocytes of European origin, Episkin); assay: Depigmenting activity on pigmented reconstructed epidermis (melanin quantified by image analysis, Fontana-Masson stain); assay type: cell-based, human; conditions: compounds at 30 μM in DMSO, added to culture medium
Experimental: The aim of this test is to evaluate the modulation of melanogenesis in pigmented reconstructed epidermides after “systemic” application of the products. • The compounds are tested at 30 μM in DMSO. • The pigmented epidermides are reconstructed using keratinocytes and melanocytes of European origin seeded on the substrate BPER (Episkin). The test products are added to the culture medium immediately on seeding the cells and at all the changes of medium.
The pigmented reconstructed epidermis standard study model was published by:
Regnier M., Duval C., Galey J. B., Philippe M., Lagrange A., Tuloup R., Schmidt R., Cellular and Molecular Biology, 1999, 45, 7, 969-980: “Keratinocyte-melanocyte co-cultures and pigmented reconstructed human epidermis: models to study modulation of melanogenesis”.
The melanin was quantified by image analysis on histological sections after revelation with Fontana-Masson stain. Each stained epidermis is photographed over its entire length using a camera connected to a microscope.
The decrease in the amount of melanin is evaluated relative to the solvent (DMSO)

Compound	IC50 (normal human melanocytes) [µM]	Depigmenting activity/DMSO (decrease in the amount of melanin relative to the solvent) [1] [%]
CC(CCO)c1ccc(O)cc1O (stereo not drawn) [Compound 1, 4-(3-hydroxy-1-methylpropyl) benzene-1,3-diol]	3.61	−59
CC(=O)OCCC(C)c1ccc(OC(C)=O)cc1OC(C)=O (stereo not drawn) [Compound 2, 4-[4-(acetyloxy)but-2-yl]benzene-1,3-diyl diacetate]	4.08	–
CC(=O)OCCC(C)c1ccc(O)cc1O (stereo not drawn) [Compound 3, 3-(2,4-dihydroxyphenyl) butyl acetate]	4.96	–
CCCCc1ccc(O)cc1O [Lucinol, reference compound]	–	−41
OCCCc1ccc(O)cc1O [compound (A), reference compound]	23.4	–
